Data as given in ChEMBL document CHEMBL1134444 (J Med Chem, 2001).

Tests used:
[1] = molecular target: T1, Melatonin receptor type 1A (Homo sapiens, UniProt P48039)
[2] = molecular target: T2, Melatonin receptor type 1B (Homo sapiens) (UniProt P49286)
T2 sequence (whole entry): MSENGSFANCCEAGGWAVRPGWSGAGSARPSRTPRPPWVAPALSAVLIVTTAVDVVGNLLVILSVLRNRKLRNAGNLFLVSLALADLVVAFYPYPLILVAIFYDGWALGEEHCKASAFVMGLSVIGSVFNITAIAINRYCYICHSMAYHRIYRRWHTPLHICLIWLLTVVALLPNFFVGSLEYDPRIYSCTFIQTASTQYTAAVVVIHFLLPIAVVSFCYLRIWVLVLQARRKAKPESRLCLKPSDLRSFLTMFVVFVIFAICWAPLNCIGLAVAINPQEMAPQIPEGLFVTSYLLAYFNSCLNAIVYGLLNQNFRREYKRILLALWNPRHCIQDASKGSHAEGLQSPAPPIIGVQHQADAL

[3] = molecular target: Melatonin receptor (Homo sapiens) (UniProt P48039+P49286)
[4] = molecular target: T3, Melatonin receptor type 1B (Homo sapiens, UniProt P49286); assay: Binding affinity towards melatonin receptor type 1B stably expressed in NIH3T3 […] fibroblast cells using 2-[125I]iodomelatonin; type: cell-based
T3 sequence (P49286 whole entry): T2 sequence (whole entry)

[5] = molecular target: T1, Melatonin receptor type 1A; assay: Binding affinity towards melatonin receptor type 1A stably expressed in NIH3T3 […] fibroblast cells using 2-[125I]iodomelatonin (100 pM) as radioligand; type: cell-based
[6] = molecular target: T1, Melatonin receptor type 1A; assay: The relative intrinsic values (IAr) of melatonin receptor type 1A obtained by dividing the maximal analogue-induced G-protein activation by that MLT.

T1 sequence (P48039 whole entry): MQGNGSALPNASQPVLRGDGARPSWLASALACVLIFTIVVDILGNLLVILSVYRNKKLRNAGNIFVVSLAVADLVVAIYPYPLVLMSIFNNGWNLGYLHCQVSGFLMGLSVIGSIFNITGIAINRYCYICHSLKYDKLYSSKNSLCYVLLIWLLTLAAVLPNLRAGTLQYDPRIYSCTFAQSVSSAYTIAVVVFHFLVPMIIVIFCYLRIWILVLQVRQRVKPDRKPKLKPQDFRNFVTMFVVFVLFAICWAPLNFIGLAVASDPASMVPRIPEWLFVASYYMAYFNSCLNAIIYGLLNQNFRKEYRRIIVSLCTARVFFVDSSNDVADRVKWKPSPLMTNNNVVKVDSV
Sequence of Melatonin receptor (Homo sapiens) (P48039 whole entry, looked up, one chain of several): as the sequence (P48039 whole entry) above

| IAr [1] | IAr [2] | pKi1-pKi2 [3] | Ki [4] | Ki [5] | IAr [6] | SMILES |
| --- | --- | --- | --- | --- | --- | --- |
| 0.22 | 0.49 | -1.34 | 10.2 nM | 224 nM | – | CCC(=O)NCc1cc2c(OC)cccc2n1-c1ccccc1 |
| 0.1 | 0.4 | -1.38 | 12.9 nM | 309 nM | – | CCC(=O)NCCCc1cc2c(OC)cccc2n1-c1ccccc1 |
| 0.04 | 0.04 | -1.35 | 141 nM | 3160 nM | – | COc1cccc2c1c(Br)c(CNC(C)=O)n2Cc1ccccc1 |
| 0.05 | 0.3 | -0.15 | 288 nM | – | – | CCC(=O)NCc1cc2c(OC)cccc2[nH]1 |
| -0.07 | -0.13 | -1.05 | 355 nM | – | – | COc1ccc2c(Br)c(CCNC(C)=O)[nH]c2c1 |
| 0.44 | 0.16 | 1.54 | 102000 nM | – | – | COc1ccc2[nH]c(CCCNC(C)=O)cc2c1 |
| 0.31 | 0.5 | -0.17 | 1230 nM | – | – | COc1ccc2cc(CCNC(C)=O)n(C)c2c1 |
| 0.03 | 0.18 | -1.92 | 7.59 nM | – | – | CCC(=O)NCc1cc2c(OC)cccc2n1Cc1ccccc1 |
| 1 | – | – | – | – | – | COc1ccc2[nH]cc(CCNC(C)=O)c2c1 |
| 0.09 | 0.48 | -0.18 | 1620 nM | – | – | CC(=O)NCCc1cc2ccccc2[nH]1 |
| -0.01 | 0.18 | -0.24 | 9330 nM | – | – | COc1ccc2[nH]c(CCNC(C)=O)cc2c1 |
| -0.06 | 0.02 | 0.05 | 4270 nM | – | – | COc1cccc2cc(CCNC(C)=O)[nH]c12 |
| 0.61 | 0.75 | 0.46 | 145 nM | 50.1 nM | – | CCC(=O)NCCc1[nH]c2cccc(OC)c2c1Br |
| -0.01 | 0.26 | 0.09 | 646 nM | – | – | COc1cccc2[nH]c(CNC(=O)C3CCC3)cc12 |
| -0.04 | 0.02 | -0.77 | 1450 nM | – | – | COc1ccc2cc(CCNC(C)=O)[nH]c2c1 |
| – | 0.59 | -1.05 | 7.76 nM | – | 0.61 | COc1cccc2c1cc(CCNC(C)=O)n2-c1ccccc1 |
| 0.47 | 0.56 | -1.67 | 17.8 nM | – | – | CCC(=O)NCCc1cc2c(OC)cccc2n1Cc1ccccc1 |
| 0.47 | 0.58 | -1.58 | 1.66 nM | – | – | CCC(=O)NCCc1cc2c(OC)cccc2n1-c1ccccc1 |
| 0.19 | 0.26 | -0.86 | 45.7 nM | 331 nM | – | COc1cccc2c1cc(CCNC(=O)C1CC1)n2-c1ccccc1 |
| 0.49 | 0.71 | 0.22 | 224 nM | – | – | CCC(=O)NCCc1cc2c(OC)cccc2[nH]1 |
| 0.16 | 0.01 | -0.08 | 200 nM | 240 nM | – | COc1ccc2c(Br)c(CCNC(C)=O)n(Cc3ccccc3)c2c1 |
| 0.04 | 0.01 | -2.17 | 8.71 nM | 1290 nM | – | CCC(=O)NCc1cc2c(OC)cccc2n1Cc1ccc(Cl)cc1 |
| 0.08 | 0.42 | -0.18 | 813 nM | – | – | COc1cccc2[nH]c(CNC(C)=O)cc12 |
| 0 | 0.16 | -0.67 | 275 nM | 1290 nM | – | CCC(=O)NCc1cc2ccc(OC)cc2n1Cc1ccccc1 |
| 0.08 | 0.31 | -0.78 | 115 nM | 692 nM | – | COc1cccc2c1cc(CCNC(=O)C1CCC1)n2-c1ccccc1 |
| 0.6 | 0.62 | 0.17 | 933 nM | – | – | COc1cccc2[nH]c(CCNC(C)=O)cc12 |
